# Measured values published in patent US11292821B2, “Peptides and combination of peptides for use in immunotherapy against lung cancer, including NSCLC, SCLC and other cancers” (Immatics Biotechnologies GmbH, priority 2017, dated 2022).
# Tested on: HLA-A*01
# Assay: MHC binding assay (UV-ligand exchange, β2m ELISA)
# Design: species or system human
# Excerpt: Candidate peptides for T cell based therapies according to the present invention were further tested for their MHC binding capacity (affinity). The individual peptide-MHC complexes were produced by UV-ligand exchange, where a UV-sensitive peptide is cleaved upon UV-irradiation, and exchanged with the peptide of interest as analyzed. Only peptide candidates that can effectively bind and stabilize the peptide-receptive MHC molecules prevent dissociation of the MHC complexes. To determine the yield of the exchange reaction, an ELISA was performed based on the detection of the light chain (β2m) of stabilized MHC complexes. The assay was performed as generally described in Rodenko et al. (Rodenko et al., 2006).
# 96 well MAXISorp plates (NUNC) were coated over night with 2 ug/ml streptavidin in PBS at room temperature, washed 4× and blocked for 1 h at 37° C. in 2% BSA containing blocking buffer. […] Peptide-MHC monomers of the UV-exchange reaction were diluted 100-fold in blocking buffer. Samples were incubated for 1 h at 37° C., washed four times, incubated with 2 ug/ml HRP conjugated anti-β2m for 1h at 37° C., washed again and detected with TMB solution that is stopped with […]. Absorption was measured at 450 nm. Candidate peptides that show a high exchange yield (preferably higher than 50%, most preferred higher than 75%) are generally preferred for a generation and production of antibodies or fragments thereof, and/or T cell receptors or fragments thereof, as they show sufficient avidity to the MHC molecules and prevent dissociation of the MHC complexes.
row,Substance,"Peptide exchange (peptide exchange yield, MHC class I binding score)"
1,158 (LSDLLKQGY; listed as Homo sapiens) [compound 158],“++++” (>75% = ++++)
2,142 (EVAEPSVLFDLY; listed as Homo sapiens) [compound 142],“+++” (>50 = +++)
3,188 (VSDAKLDKY; listed as Homo sapiens) [compound 188],“+++” (>50 = +++)
4,182 (TDYHVRVY; listed as Homo sapiens) [compound 182],“+++” (>50 = +++)
5,163 (NSDSSLTLREFY; listed as Homo sapiens) [compound 163],“+++” (>50 = +++)
6,176 (SRTINVSNLY; listed as Homo sapiens) [compound 176],“+++” (>50 = +++)
7,191 (VTDGSLYEGVAY; listed as Homo sapiens) [compound 191],“++++” (>75% = ++++)
8,148 (GTEFTTILY; listed as Homo sapiens) [compound 148],“++++” (>75% = ++++)
9,166 (NTQITDIGRY; listed as Homo sapiens) [compound 166],“+++” (>50 = +++)
10,151 (HSDLKVGEY; listed as Homo sapiens) [compound 151],“+++” (>50 = +++)
11,138 (DSDSCHFNY; listed as Homo sapiens) [compound 138],“++++” (>75% = ++++)
12,165 (NTDPTAPPY; listed as Homo sapiens) [compound 165],“+++” (>50 = +++)
13,181 (TADGKTYYY; listed as Homo sapiens) [compound 181],“+++” (>50 = +++)
14,195 (VVDSVGGYLY; listed as Homo sapiens) [compound 195],“++++” (>75% = ++++)
15,161 (LVDDGTHGQY; listed as Homo sapiens) [compound 161],“+++” (>50 = +++)
16,168 (QTDHPQPILDRY; listed as Homo sapiens) [compound 168],“++++” (>75% = ++++)
17,140 (ESDREELNY; listed as Homo sapiens) [compound 140],“+++” (>50 = +++)
18,194 (VVADTKMIEY; listed as Homo sapiens) [compound 194],“+” (>10% = +)
19,146 (GLNTGSALSY; listed as Homo sapiens) [compound 146],“++” (>20% = ++)
20,139 (ECDMAFHIY; listed as Homo sapiens) [compound 139],“++++” (>75% = ++++)
21,157 (LMDRPIFY; listed as Homo sapiens) [compound 157],“++++” (>75% = ++++)
22,177 (SSDEVNFLVY; listed as Homo sapiens) [compound 177],“++++” (>75% = ++++)

# More lines, now with the values ahead:
row,"Peptide exchange (peptide exchange yield, MHC class I binding score)",Substance
1,“++++” (>75% = ++++),422 (MIDVTKSYY; listed as Homo sapiens) [compound 422]
2,“++++” (>75% = ++++),427 (NSDEQKITEMVY; listed as Homo sapiens) [compound 427]
3,“+++” (>50 = +++),408 (FTEQWTDGY; listed as Homo sapiens) [compound 408]
4,“++++” (>75% = ++++),407 (FSDNDKLYLY; listed as Homo sapiens) [compound 407]
5,“++++” (>75% = ++++),429 (NTEDSSMSGYLY; listed as Homo sapiens) [compound 429]
6,“+++” (>50 = +++),415 (LLDPRSYHTY; listed as Homo sapiens) [compound 415]
7,“++” (>20% = ++),199 (YLPQHTIETY; listed as Homo sapiens) [compound 199]
8,“+++” (>50 = +++),444 (TTDTVIRSY; listed as Homo sapiens) [compound 444]
9,“+++” (>50 = +++),439 (TLDAGKFQIY; listed as Homo sapiens) [compound 439]
10,“++++” (>75% = ++++),437 (STDGKHWWEY; listed as Homo sapiens) [compound 437]
11,“+++” (>50 = +++),418 (LSDPSGPKSY; listed as Homo sapiens) [compound 418]
12,“++++” (>75% = ++++),428 (NSELSCQLY; listed as Homo sapiens) [compound 428]
13,“++++” (>75% = ++++),396 (ASEFGNHYLY; listed as Homo sapiens) [compound 396]
14,“++++” (>75% = ++++),431 (NTSDMMGRMSY; listed as Homo sapiens) [compound 431]
15,“+++” (>50 = +++),400 (ATDISRQNEY; listed as Homo sapiens) [compound 400]
16,“+++” (>50 = +++),445 (VLDQGKITEY; listed as Homo sapiens) [compound 445]
17,“++++” (>75% = ++++),449 (YLDRGTGNVSFY; listed as Homo sapiens) [compound 449]
18,“+++” (>50 = +++),402 (DTDSQRLAY; listed as Homo sapiens) [compound 402]
19,“++++” (>75% = ++++),399 (ATDIPCLLY; listed as Homo sapiens) [compound 399]
20,“+++” (>50 = +++),447 (VVDEDHELIY; listed as Homo sapiens) [compound 447]
21,“++++” (>75% = ++++),450 (YSDDGQKWTVY; listed as Homo sapiens) [compound 450]
22,“++++” (>75% = ++++),416 (LLDTAQKNLY; listed as Homo sapiens) [compound 416]
23,“++++” (>75% = ++++),423 (NLDAVHDITVAY; listed as Homo sapiens) [compound 423]
24,“++++” (>75% = ++++),409 (FVDPLVTNY; listed as Homo sapiens) [compound 409]
25,“+++” (>50 = +++),440 (TLDENPGVRY; listed as Homo sapiens) [compound 440]
26,“++++” (>75% = ++++),435 (QTDDTWRTEY; listed as Homo sapiens) [compound 435]
27,“+++” (>50 = +++),432 (NVDPVQHTY; listed as Homo sapiens) [compound 432]
